Results taken from ChEMBL document CHEMBL1146528, “Isolation and structures of avicins D and G: in vitro tumor-inhibitory saponins derived from Acacia victoriae” (J Nat Prod, 2003).
Values after ≈ are worked out from the molar mass of the structure shown.

test system: Jurkat; test: Cytotoxicity against human Jurkat cells after 72 hrs by MTT assay; assay type: functional, cell-based

SMILES | IC50
CC(=O)N[C@H]1[C@H](O[C@H]2CC[C@]3(C)[C@H]4CC=C5[C@@H]6CC(C)(C)[C@@H](O)C[C@]6(C(=O)O)[C@H](O)C[C@@]5(C)[C@]4(C)CC[C@H]3C2(C)C)O[C@H](CO[C@@H]2O[C@H](C)[C@H](O)[C@H](O)[C@H]2O[C@@H]2OC[C@@H](O)[C@H](O)[C@H]2O)[C@@H](O)[C@@H]1O | > 100 µg/mL
CC1(C)C[C@H]2C3=CC[C@@H]4[C@@]5(C)CC[C@H](O)C(C)(C)[C@@H]5CC[C@@]4(C)[C@]3(C)C[C@@H](O)[C@@]23C[C@@H]1OC3=O | > 100 µg/mL
C=C[C@](C)(O)CC/C=C(\CO)C(=O)O[C@H]1[C@H](O)[C@@H](O)[C@H](O[C@@](C)(C=C)CC/C=C(\CO)C(=O)O[C@H]2C[C@]3(C(=O)O[C@@H]4O[C@H](CO)[C@@H](O)[C@H](O)[C@H]4O[C@@H]4O[C@@H](C)[C@H](O[C@@H]5O[C@@H](CO)[C@H](O)[C@H]5O)[C@@H](O[C@@H]5O[C@H](CO)[C@@H](O)[C@H](O)[C@H]5O)[C@H]4O)[C@H](O)C[C@]4(C)C(=CC[C@@H]5[C@@]6(C)CC[C@H](O[C@@H]7O[C@H](CO[C@@H]8O[C@H](C)[C@H](O)[C@H](O)[C@H]8O[C@@H]8OC[C@@H](O)[C@H](O)[C@H]8O)[C@@H](O)[C@H](O)[C@H]7NC(C)=O)C(C)(C)[C@@H]6CC[C@]54C)[C@@H]3CC2(C)C)O[C@@H]1C [AVICIN D] | 0.58 µg/mL (≈ 0.278 µM)
C=C[C@](C)(O)CC/C=C(\C)C(=O)O[C@H]1[C@H](O)[C@@H](O)[C@H](O[C@@](C)(C=C)CC/C=C(\CO)C(=O)O[C@H]2C[C@]3(C(=O)O[C@@H]4O[C@H](CO)[C@@H](O)[C@H](O)[C@H]4O[C@@H]4O[C@@H](C)[C@H](O[C@@H]5O[C@@H](CO)[C@H](O)[C@H]5O)[C@@H](O[C@@H]5O[C@H](CO)[C@@H](O)[C@H](O)[C@H]5O)[C@H]4O)[C@H](O)C[C@]4(C)C(=CC[C@@H]5[C@@]6(C)CC[C@H](O[C@@H]7O[C@H](CO[C@@H]8O[C@H](C)[C@H](O)[C@H](O)[C@H]8O[C@@H]8OC[C@@H](O)[C@H](O)[C@H]8O)[C@@H](O)[C@H](O)[C@H]7NC(C)=O)C(C)(C)[C@@H]6CC[C@]54C)[C@@H]3CC2(C)C)O[C@@H]1C [AVICIN G] | 0.22 µg/mL (≈ 0.106 µM)
C=C[C@@](C)(CC/C=C(\CO)C(=O)O[C@H]1C[C@]2(C(=O)O[C@@H]3O[C@H](CO)[C@@H](O)[C@H](O)[C@H]3O[C@@H]3O[C@@H](C)[C@H](O[C@@H]4O[C@@H](CO)[C@H](O)[C@H]4O)[C@@H](O[C@@H]4O[C@H](CO)[C@@H](O)[C@H](O)[C@H]4O)[C@H]3O)[C@H](O)C[C@]3(C)C(=CC[C@@H]4[C@@]5(C)CC[C@H](O[C@@H]6O[C@H](CO[C@@H]7O[C@H](C)[C@H](O)[C@H](O)[C@H]7O[C@@H]7OC[C@@H](O)[C@H](O)[C@H]7O)[C@@H](O)[C@H](O)[C@H]6NC(C)=O)C(C)(C)[C@@H]5CC[C@]43C)[C@@H]2CC1(C)C)O[C@@H]1O[C@H](C)[C@@H](O)[C@H](O)[C@H]1O [JULIBROSIDE J29] | 5.8 µg/mL (≈ 3.05 µM)
